Test results taken from patent US10765629B2 (Allergan, Inc., priority 2017, dated 2020).

Test: Stability study at 40° C./75% RH (appearance; potency by HPLC)
Assay type: physicochemical
Experimental: All the vials were sealed with HPLC vial cap. The Time 0 samples were in −20° C. freezer and all other samples in 40° C./75% RH chamber. […] After appropriate dilution, analyzed the samples by HPLC according to the method below:
The standard stock solution of Compound 1 was prepared by dissolving 1.18 mg Compound 1 with 25 ml mixture of acetonitrile and water (acetonitrile:water=1:1). The stock solution was serially further diluted with a dilution factor of 2 to obtain a standard calibration curve.

Physical state on storage (40° C./75% RH, 12 weeks): became an oil | Physical state on storage (40° C./75% RH, within hours): turns into oil | Appearance (Day 1, 40° C./75% RH): Oil | Appearance (Time 0, sample kept in −20° C. freezer): White | Appearance (Week 1, 40° C./75% RH): Oil | Appearance (Week 2, 40° C./75% RH): Oil | Appearance (Week 4, 40° C./75% RH): Oil | Appearance (Week 8, 40° C./75% RH): Oil | Appearance (Week 12, 40° C./75% RH): Oil | Potency loss (end of the 12-week study, 40° C./75% RH, HPLC): about 20%
Compound: NC(=O)CCC/C=C\C[C@@H]1[C@@H](/C=C/[C@@H](O)CCc2cc(Cl)sc2Cl)[C@H](O)C[C@@H]1O [Compound 1, (Z)-7-((1R,2R,3R,5S)-2-((S,E)-5-(2,5-dichlorothiophen-3-yl)-3-hydroxypent-1-en-1-yl)-3,5-dihydroxycyclopentyl)hept-5-enamide]
